Experimental data published in PubChem BioAssay AID330 (DTP/NCI, 2004).
Where “and” joins values, the source holds several entries; their conditions need not be identical. Equal entries are not always repeated. Inconclusive results and toxic doses are left out. The calls were made as follows: active = survival T/C of 150% or more; inactive = T/C below 125% in these data.

Test system: P388 leukemia ip, CD2F1 mice, survival T/C
Assay: NCI In Vivo Anticancer Drug Screen. Data for tumor model P388 Leukemia (intraperitoneal) in CD2F1 (CDF1) mice
Conditions: endpoint: median survival time, higher = longer survival
Summary of the method: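 Mice carrying the transplanted tumor received test compound or vehicle. Survival was recorded in each group, and the value is the treated-group measurement divided by that of the vehicle-treated control group.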

[1] = dose: 60.0 mg/kg/injection, schedule: Q01DX005 (ip), vehicle: saline with Tween-80
[2] = dose: 120.0 mg/kg/injection, schedule: Q01DX005 (ip), vehicle: saline with Tween-80
[3] = dose: 240.0 mg/kg/injection, schedule: Q01DX005 (ip), vehicle: saline with Tween-80
[4] = dose: 50.0 mg/kg/injection, schedule: Q01DX005 (ip), vehicle: saline with Tween-80
[5] = dose: 100.0 mg/kg/injection, schedule: Q01DX005 (ip), vehicle: saline with Tween-80
[6] = dose: 200.0 mg/kg/injection, schedule: Q01DX005 (ip), vehicle: saline with Tween-80
[7] = dose: 60.0 mg/kg/injection, schedule: Q01DX005 (ip), vehicle: saline
[8] = dose: 120.0 mg/kg/injection, schedule: Q01DX005 (ip), vehicle: saline
[9] = dose: 240.0 mg/kg/injection, schedule: Q01DX005 (ip), vehicle: saline

Measured: T/C

COc1cc(/C=N\N=c2\sc3ccccc3n2C)ccc1OCCO
inactive: [1] 92 % of control | [2] 91 % of control | [3] 91 % of control

C[C@]12CC[C@@H]3c4ccc(OCCCO)c([N+](=O)[O-])c4CC[C@H]3[C@@H]1CCC2=O
inactive: dose: 25.0 mg/kg/injection, schedule: Q01DX005 (ip), vehicle: saline with Tween-80 100 % of control | [4] 106 % of control | [5] 91 % of control | [6] 88 % of control

Fc1cccc(Cl)c1CSC(=S)N1CCSCC1
inactive: [1] 110 % of control | [2] 105 % of control | [3] 96 % of control

CC(=O)OCC(=O)[C@@]1(O)CC[C@H]2[C@@H]3CCC4=CC(=O)C=C[C@]4(C)[C@H]3C(=O)C[C@@]21C
inactive: dose: 25.0 mg/kg/injection, schedule: Q04DX003 (ip), vehicle: saline with Tween-80 95 % of control | dose: 50.0 mg/kg/injection, schedule: Q04DX003 (ip), vehicle: saline with Tween-80 104 % of control | dose: 100.0 mg/kg/injection, schedule: Q04DX003 (ip), vehicle: saline with Tween-80 95 % of control

Cc1ccc(-c2cc(-c3cc(-c4ccc(C)cc4)nc(N)n3)nc(N)n2)cc1
inactive: [7] 90 % of control | [8] 96 % of control | [9] 97 % of control

c1cc(OCC2CO2)cc(OCC2CO2)c1 (stereo unspecified)
inactive: dose: 3.12 mg/kg/injection, schedule: Q01DX009 (ip), vehicle: DMSO 88 % of control | dose: 6.25 mg/kg/injection, schedule: Q01DX009 (ip), vehicle: DMSO 88 % of control | dose: 12.5 mg/kg/injection, schedule: Q01DX009 (ip), vehicle: DMSO 100 % of control | dose: 25.0 mg/kg/injection, schedule: Q01DX009 (ip), vehicle: DMSO 104 % of control and 96 % of control | dose: 50.0 mg/kg/injection, schedule: Q01DX009 (ip), vehicle: DMSO 104 % of control | dose: 100.0 mg/kg/injection, schedule: Q01DX009 (ip), vehicle: DMSO 95 % of control

CCC1C(=O)CC(C(=O)O)C1C(=O)O (stereo unspecified)
inactive: dose: 30.0 mg/kg/injection, schedule: Q01DX005 (ip), vehicle: saline 98 % of control | [7] 98 % of control and 96 % of control | [8] 95 % of control | [9] 86 % of control

Nc1nc(=O)n(CCCSc2ccc([N+](=O)[O-])cc2)cc1-c1ccc(Cl)c(Cl)c1
inactive: dose: 60.0 mg/kg/injection, schedule: Q01DX005 (ip), vehicle: Klucel (hydroxypropylcellulose) (HPC) 87 % of control | dose: 120.0 mg/kg/injection, schedule: Q01DX005 (ip), vehicle: Klucel (hydroxypropylcellulose) (HPC) 97 % of control | dose: 240.0 mg/kg/injection, schedule: Q01DX005 (ip), vehicle: Klucel (hydroxypropylcellulose) (HPC) 88 % of control

CCB(CC)OC1OC(C2COB(CC)O2)C2OB(CC)OC12 (stereo unspecified)
inactive: [4] 103 % of control | [5] 95 % of control | [6] 101 % of control

O=C1OCCOCCOCCOCCOC(=O)c2cncc1c2
inactive: dose: 100.0 mg/kg/injection, schedule: Q01DX001 (ip), vehicle: Klucel (hydroxypropylcellulose) (HPC) 101 % of control | dose: 200.0 mg/kg/injection, schedule: Q01DX001 (ip), vehicle: Klucel (hydroxypropylcellulose) (HPC) 108 % of control | dose: 400.0 mg/kg/injection, schedule: Q01DX001 (ip), vehicle: Klucel (hydroxypropylcellulose) (HPC) 105 % of control

O=c1[nH]ccc2nncn12
inactive: dose: 100.0 mg/kg/injection, schedule: Q01DX001 (ip), vehicle: saline with Tween-80 100 % of control | dose: 200.0 mg/kg/injection, schedule: Q01DX001 (ip), vehicle: saline with Tween-80 106 % of control | dose: 400.0 mg/kg/injection, schedule: Q01DX001 (ip), vehicle: saline with Tween-80 99 % of control

CCOC(=O)\C(C#N)=C/C=C(C)/C(C)=C/Nc1ccc([N+](=O)[O-])cc1[N+](=O)[O-]
inactive: dose: 50.0 mg/kg/injection, schedule: Q01DX005 (ip), vehicle: Klucel (hydroxypropylcellulose) (HPC) 101 % of control | dose: 100.0 mg/kg/injection, schedule: Q01DX005 (ip), vehicle: Klucel (hydroxypropylcellulose) (HPC) 91 % of control | dose: 200.0 mg/kg/injection, schedule: Q01DX005 (ip), vehicle: Klucel (hydroxypropylcellulose) (HPC) 91 % of control
